Results as given in the supplement of paper PMC10331698.
± gives the standard deviation of the averaged measurements.

Key:
Experiment in all cases: level (log10 ratio to DMSO vehicle control); higher = higher biomarker level / cell amount than vehicle control
Settings in all cases: in DMSO
[1] = compound: O=C(O)C(F)(F)C(F)(F)C(F)(F)OC(F)(C(F)(F)F)C(F)(F)F [Perfluoro-4-isopropoxybutanoic acid]
Experimental: (§1)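 BioMAP Diversity Plus panel of 12 human primary cell co-culture systems (3C, 4H, LPS, SAg, BT, BF4T, BE3C, CASM3C, HDF3CGF, KF3CT, MyoF, Mphg). Compounds were added 1 h before stimulation and left for 24 h (MyoF 48 h; BT 72 h for soluble read-outs or 6 d for IgG). Biomarkers were read by ELISA, cytotoxicity by SRB, PBMC viability and proliferation by Alamar Blue. Each well value was divided by the mean of 8 DMSO control wells on the same plate and log10 transformed; duplicate blinded samples were tested at 4 concentrations.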

[2] = compound: NC(=O)C(F)(F)C(F)(F)F [Pentafluoropropionamide]
Experimental: as §1

[3] = compound: O=S(=O)(O)C(F)(F)C(F)(F)C(F)(F)C(F)(F)C(F)(F)C(F)(F)F [Perfluorohexanesulfonic acid]
Experimental: as §1

[4] = compound: OCCC(F)(F)C(F)(F)C(F)(F)C(F)(F)C(F)(F)C(F)(F)F [6:2 Fluorotelomer alcohol]
Experimental: as §1

[5] = compound: O=C(O)C(F)(F)C(F)(F)OC(F)(F)F [Perfluoro-3-methoxypropanoic acid]
Experimental: as §1

[6] = compound: FC(F)(F)C(F)(C(F)(F)F)C(F)(F)C(F)(F)CC1CO1 [3-(Perfluoro-3-methylbutyl)-1,2-propenoxide]
Experimental: as §1

[7] = compound: O=C(O)C(F)(F)C(F)(F)C(F)(F)C(F)(F)C(F)(F)C(F)(F)C(F)(F)C(F)F [9-H-Perfluorononanoic acid]
Experimental: as §1

Test System | level (log10) ([1]; 6700 nM) | level (log10) ([1]; 20000 nM) | level (log10) ([1]; 60000 nM) | level (log10) ([2]; 6700 nM) | level (log10) ([2]; 20000 nM) | level (log10) ([2]; 60000 nM) | level (log10) ([3]; 6700 nM) | level (log10) ([3]; 20000 nM) | level (log10) ([3]; 60000 nM) | level (log10) ([4]; 6700 nM) | level (log10) ([4]; 20000 nM) | level (log10) ([5]; 6700 nM) | level (log10) ([5]; 20000 nM) | level (log10) ([5]; 60000 nM) | level (log10) ([6]; 6700 nM) | level (log10) ([6]; 20000 nM) | level (log10) ([7]; 6700 nM) | level (log10) ([7]; 20000 nM) | level (log10) ([7]; 60000 nM)
BT:B cell Proliferation | -0.002 ± 0.0071 | 0.0275 ± 0.0092 | 0.065 ± 0.016 | 0.005 ± 0.057 | -0.0215 ± 0.019 | 0.0205 ± 0.019 | -0.0075 ± 0.047 | 0.0015 ± 0.053 | 0.063 ± 0.024 | 0.022 ± 0.0057 | -0.01 ± 0.014 | -0.022 ± 0.023 | 0.0015 ± 0.022 | 0.0135 ± 0.005 | -0.002 ± 0.025 | 0.017 ± 0.0099 | 0.0245 ± 0.0021 | 0.0495 ± 0.00071 | 0.108 ± 0.0028
3C:Proliferation | -0.0195 ± 0.05 | 0.002 ± 0.098 | -0.0325 ± 0.046 | -0.0095 ± 0.05 | -0.0165 ± 0.0064 | -0.0115 ± 0.029 | -0.042 ± 0.034 | -0.0525 ± 0.054 | -0.0305 ± 0.022 | -0.0325 ± 0.066 | -0.015 ± 0.086 | -0.0295 ± 0.056 | -0.023 ± 0.03 | -0.0135 ± 0.037 | -0.014 ± 0.016 | -0.002 ± 0.042 | -0.013 ± 0.017 | 0.004 ± 0.037 | -0.023 ± 0.031
BE3C:CD54/ICAM-1 | -0.0095 ± 0.022 | -0.014 ± 0.024 | -0.0245 ± 0.005 | -0.0045 ± 0.0021 | 0.002 ± 0.0028 | -0.0055 ± 0.00071 | 0 ± 0.027 | 0.0025 ± 0.016 | 0.008 ± 0.013 | 0.0035 ± 0.018 | 0.001 ± 0.016 | 0.003 ± 0.013 | -0.0035 ± 0.0021 | 0.0065 ± 0.011 | -0.0095 ± 0.019 | -0.0065 ± 0.0092 | -0.0435 ± 0.012 | -0.043 ± 0.0042 | -0.071 ± 0.0057
LPS:CXCL8/IL-8 | 0.0515 ± 0.0021 | 0.0935 ± 0.035 | 0.134 ± 0.018 | -0.009 ± 0.013 | -0.0115 ± 0.00071 | 0.0285 ± 0.037 | -0.0005 ± 0.0021 | 0.0025 ± 0.0078 | 0.0675 ± 0.047 | 0.071 ± 0.038 | 0.039 ± 0.023 | 0.0285 ± 0.035 | 0.018 ± 0.017 | 0.027 ± 0.0014 | 0.0325 ± 0.043 | 0.045 ± 0.072 | 0.046 ± 0.047 | 0.102 ± 0.021 | 0.17 ± 0.033
LPS:M-CSF | 0.001 ± 0.0057 | -0.004 ± 0.023 | 0.016 ± 0.0028 | -0.0285 ± 0.039 | -0.0055 ± 0.0064 | 0.023 ± 0.0042 | -0.0065 ± 0.025 | -0.0045 ± 0.025 | 0.036 ± 0.02 | 0.0085 ± 0.0035 | -0.005 ± 0.021 | 0.001 ± 0.0085 | -0.0165 ± 0.00071 | 0.0235 ± 0.015 | -0.0005 ± 0.019 | 0.021 ± 0.038 | -0.025 ± 0.04 | -0.0085 ± 0.016 | 0.0525 ± 0.044
BF4T:CCL2/MCP-1 | 0.0235 ± 0.046 | 0.0325 ± 0.084 | 0.045 ± 0.078 | -0.0075 ± 0.0035 | -0.0195 ± 0.00071 | 0.001 ± 0.025 | 0.028 ± 0.045 | -0.0075 ± 0.013 | -0.042 ± 0.037 | 0.024 ± 0.033 | 0.02 ± 0.014 | 0.0075 ± 0.026 | 0.0115 ± 0.043 | 0.0535 ± 0.054 | -0.011 ± 0.011 | -0.0035 ± 0.0092 | -0.164 ± 0.011 | -0.19 ± 0.0057 | -0.122 ± 0.036
SAg:CD69 | -0.0085 ± 0.00071 | -0.0055 ± 0.005 | -0.016 ± 0.0042 | -0.026 ± 0.013 | -0.0385 ± 0.018 | -0.026 ± 0.0071 | -0.0235 ± 0.00071 | -0.0175 ± 0.012 | -0.06 ± 0.0014 | 0.012 ± 0.025 | -0.012 ± 0.016 | 0.0005 ± 0.00071 | 0.0225 ± 0.011 | -0.0005 ± 0.018 | -0.0125 ± 0.015 | -0.006 ± 0.059 | -0.0335 ± 0.025 | -0.034 ± 0.0085 | -0.0245 ± 0.00071
BF4T:SRB | -0.007 ± 0.0057 | -0.015 | -0.005 ± 0.0099 | -0.0035 ± 0.00071 | -0.007 ± 0.0071 | -0.004 ± 0.0042 | -0.01 ± 0.0085 | -0.0115 ± 0.0078 | -0.0005 ± 0.0021 | -0.0065 ± 0.005 | -0.0055 ± 0.0078 | -0.0145 ± 0.0035 | -0.0085 ± 0.0021 | 0.0025 ± 0.022 | 0.0015 ± 0.0035 | -0.0035 ± 0.00071 | -0.018 ± 0.0085 | -0.018 ± 0.0071 | -0.016 ± 0.0014
BF4T:tPA | -0.036 ± 0.017 | -0.015 ± 0.016 | 0.0145 ± 0.057 | -0.013 ± 0.0028 | -0.014 ± 0.0042 | 0 ± 0.02 | -0.004 ± 0.023 | -0.0125 ± 0.013 | 0.022 ± 0.0057 | -0.0215 ± 0.032 | -0.0135 ± 0.021 | 0.0015 ± 0.037 | 0.0035 ± 0.018 | 0.019 ± 0.04 | 0.0135 ± 0.00071 | 0.0135 ± 0.0021 | -0.094 ± 0.014 | -0.128 ± 0.012 | -0.122 ± 0.019
BT:sTNF-alpha | -0.0005 ± 0.076 | 0.026 ± 0.083 | 0.085 ± 0.078 | 0.0135 ± 0.0078 | 0.0225 ± 0.081 | -0.0025 ± 0.0092 | 0.024 ± 0.13 | -0.011 ± 0.034 | -0.0495 ± 0.044 | 0.071 ± 0.028 | -0.0445 ± 0.015 | 0.055 ± 0.035 | -0.0805 ± 0.084 | 0.0205 ± 0.17 | 0.0545 ± 0.076 | 0.0925 ± 0.093 | 0.032 ± 0.069 | 0.076 ± 0.014 | 0.032 ± 0.04
SAg:CD38 | -0.003 ± 0.014 | -0.0015 ± 0.0035 | -0.017 ± 0.014 | -0.026 ± 0.02 | -0.0125 ± 0.028 | 0.0005 ± 0.0064 | -0.006 ± 0.014 | 0.004 ± 0.038 | -0.023 ± 0.014 | 0.0115 ± 0.026 | -0.008 ± 0.0071 | -0.007 ± 0.0042 | 0.003 ± 0.0085 | -0.0005 ± 0.012 | -0.0005 ± 0.0021 | 0.015 ± 0.018 | 0.0255 ± 0.039 | -0.015 ± 0.0085 | -0.016 ± 0.011
